The source of these data is patent US20100143890A1 (priority 2008, published 2010).

The subject of this assay is AI virus proteins (3425P and 3427P, ProSci Inc.); H5 protein. The assay is classed as binding, avian influenza virus.

Turning to `CC(=O)N[C@H]1[C@H]([C@H](O)[C@H](O)CO)O[C@@](O[C@H]2[C@@H](O)[C@@H](CO)O[C@@H](O[C@H]3[C@H](O)[C@@H](O)C(O)O[C@@H]3CO)[C@@H]2O)(C(=O)O)C[C@@H]1O` (some centres unmarked) [3-silaiic-lactose], the “binding properties compared with commercially available antibody” value is recorded as “not active”. In the case of `CC(=O)NC1C(O)CC(OCC2OC(OC3C(CO)OC(O)C(O)C3O)C(O)C(O)C2O)(C(=O)O)OC1C(O)C(O)CO` (centres unmarked) [6′-sialic lactose], the “binding properties compared with commercially available antibody” value is “not active”.
